The target in the experiment is PDE4D (Homo sapiens, UniProt Q08499). Nature of the experiment: in vitro PDE4D inhibition assay, liquid scintillation counting, three independent experiments. Type of experiment: biochemical.
Chain of PDE4D (Q08499 whole entry): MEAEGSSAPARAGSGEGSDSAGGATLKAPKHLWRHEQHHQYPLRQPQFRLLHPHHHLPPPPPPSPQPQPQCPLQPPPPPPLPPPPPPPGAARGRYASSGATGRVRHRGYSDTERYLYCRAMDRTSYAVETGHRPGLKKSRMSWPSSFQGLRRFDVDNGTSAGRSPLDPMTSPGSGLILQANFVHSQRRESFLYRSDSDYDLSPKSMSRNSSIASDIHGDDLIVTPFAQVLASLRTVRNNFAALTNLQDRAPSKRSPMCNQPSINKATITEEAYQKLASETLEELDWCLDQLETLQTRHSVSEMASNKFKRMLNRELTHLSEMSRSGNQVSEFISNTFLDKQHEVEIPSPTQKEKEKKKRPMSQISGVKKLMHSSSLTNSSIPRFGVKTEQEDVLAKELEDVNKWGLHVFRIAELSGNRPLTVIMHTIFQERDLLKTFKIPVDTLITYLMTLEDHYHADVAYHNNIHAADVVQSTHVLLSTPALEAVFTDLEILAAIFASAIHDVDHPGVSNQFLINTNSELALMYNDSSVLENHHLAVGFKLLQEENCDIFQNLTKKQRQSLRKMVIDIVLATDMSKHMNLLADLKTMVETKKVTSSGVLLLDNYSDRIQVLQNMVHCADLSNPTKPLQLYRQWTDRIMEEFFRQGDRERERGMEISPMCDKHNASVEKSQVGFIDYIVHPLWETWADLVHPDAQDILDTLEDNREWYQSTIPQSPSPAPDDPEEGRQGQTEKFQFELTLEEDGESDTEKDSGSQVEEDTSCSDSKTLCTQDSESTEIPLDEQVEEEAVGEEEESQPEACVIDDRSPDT

Compound `COc1cc(-c2ccccc2)c(OC)c(O)c1-c1ccc2c(c1)C=CC(C)(C)O2` [compound 3, Sanshamycin C] yielded an IC50 of 5.54 ± 0.24 µM.

The record behind these values is PMC9696254, “Discovery of p-Terphenyl Metabolites as Potential Phosphodiesterase PDE4D Inhibitors from the Coral-Associated Fungus Aspergillus sp. ITBBc1” (Marine Drugs, 2022).
